Measured values published in US4605674A, “Substituted acetophenones and compositions containing them” (Hoffmann-La Roche Inc., priority 1979, dated 1986).
In brackets after ≈: the same amount, converted by molar mass. Read-outs that look alike come from different tables or passages of the source.

What was measured:
rhinovirus HGP = assay: Inhibition of viral cytopathogenic effect (c.p.e.) of rhinovirus HGP in HeLa cells; format: cell-based, human rhinoviruses; details: Enterovirus, 48 h, read-out: IC50 against rhinovirus HGP (concentration inhibiting the viral c.p.e. by 50%)
Experimental: A suspension of HeLa cells (6×10^4) was mixed with rhinovirus HGP (3×10^3 plaque forming units, PFU) and was plated in a microtest plate containing the compounds to be tested serially diluted. The cells were then cultured with Eagle's minimum essential medium containing 2% calf serum, 1% tryptose phosphate broth, 100 μg/ml of streptomycin sulfate and 20 unit/ml of penicillin G. Viral c.p.e. (cytopathogenic effect) was observed by a microscope after 2 days culture at 33° C.
The antiviral activity of the tested compounds is expressed by the concentration inhibiting the viral c.p.e. by 50% when compared to the control culture (IC50).

in vivo = details: mouse, DDY mice, single dose
Experimental: ^(1) DDY mice weighing 15-20 g were treated with a single dose of the
compound. Survivors were recorded on day 21.
^(2) Compounds were dissolved in dimethylsulfoxide.
^(3) Compounds were suspended with solution of 0.5% carboxymethyl

[1] = ip, i.p., dissolved in dimethylsulfoxide, day 21, read-out: LD50 i.p.
[2] = po, p.o., suspended in 0.5% carboxymethyl cellulose, day 21, read-out: LD50 p.o.
[3] = HeLa cells, 2 days culture at 33° C.

| IC50 (rhinovirus HGP; [3]) [mg/L] | Structure (SMILES) | IC50 (rhinovirus HGP; HeLa) [mg/L] | LD50 at 504 h (in vivo; [1]) [mg/kg] | LD50 at 504 h (in vivo; [2]) [mg/kg] |
| --- | --- | --- | --- | --- |
|  | CCOc1cc(O)c(C(=O)/C=C/c2ccc(OC)cc2)c(OCC)c1 [2',4'-diethoxy-6'-hydroxy-4-methoxychalcone] | 0.03 to 0.1 (≈ 0.0876 to 0.292 µM) | > 1000 | > 2000 |
|  | COc1cc(O)c(C(=O)/C=C/c2ccc(SC)cc2)c(OC)c1 [2'-hydroxy-4',6'-dimethoxy-4-(methylthio)-chalcone] | 0.03 (≈ 0.0908 µM) | > 1000 | > 5000 |
|  | COc1cc(O)c(C(=O)C=Cc2ccc3c(c2)OCO3)c(OC)c1 [2'-hydroxy-4',6'-dimethoxy-3,4-(methylenedioxy)-chalcone] | 0.02 (≈ 0.0609 µM) | > 1000 | > 5000 |
|  | COc1cc(O)c(C(=O)/C=C/c2ccc(OCc3ccccc3)c(OC)c2)c(OC)c1 [4-(benzyloxy)-2'-hydroxy-3,4',6'-trimethoxychalcone] | 1 (≈ 2.38 µM) | > 500 | > 1500 |
|  | C=CCOc1ccc(/C=C/C(=O)c2c(OC)cc(OC)cc2OC(=O)CC)cc1 [4-(allyloxy)-2',4'-dimethoxy-6'-(propionyloxy)-chalcone] | 0.03 to 0.1 (≈ 0.0757 to 0.252 µM) | > 500 | > 1000 |
|  | CCCOc1ccc(/C=C/C(=O)c2c(OC)cc(OC)cc2OC(=O)CC)cc1 [2',4'-dimethoxy-6'-(propionyloxy)-4-propoxychalcone] | 0.1 to 0.3 (≈ 0.251 to 0.753 µM) | > 1000 | > 5000 |
|  | COc1ccc(/C=C/C(=O)c2c(OC)cc(OC)cc2OC(=O)[C@H](C)N)cc1 [2'-(L-alanyloxy)-4,4',6'-trimethoxychalcone] | 0.03 to 0.1 (≈ 0.0778 to 0.259 µM) | > 180 | > 1000 |
|  | COc1cc(O)c(C(=O)/C=C/c2ccc(O)cc2)c(OC)c1 [2',4-dihydroxy-4',6'-dimethoxychalcone] | 0.3 to 1 (≈ 0.999 to 3.33 µM) | > 500 | > 3200 |
|  | COc1cc(/C=C/C(=O)c2c(O)cc(OC)cc2OC)cc(OC)c1 [2'-hydroxy-3,4',5,6'-tetramethoxychalcone] | 0.3 (≈ 0.871 µM) | > 500 | > 5000 |
|  | CCCCCCCCCCCCCCCCCC(=O)Oc1cc(OC)cc(OC)c1C(=O)/C=C/c1ccc(OC)cc1 [2',4,4'-trimethoxy-6'-(octadecanoyloxy)chalcone] | 0.05 to 0.1 (≈ 0.0861 to 0.172 µM) | > 500 | > 4000 |
|  | CCOC(=O)Oc1cc(OC)cc(OC)c1C(=O)/C=C/c1ccc(OC)cc1 [2'-(ethoxycarbonyloxy)-4,4',6'-trimethoxychalcone] | 0.04 (≈ 0.104 µM) | > 500 | > 4000 |
| 0.6 (≈ 2.1 µM) | COc1cc(O)c(C(=O)C=Cc2cccnc2)c(OC)c1 [2'-hydroxy-4',6'-dimethoxy-3-(3-pyridyl)-acrylophenone] |  |  |  |
|  | COc1ccc(/C=C/C(=O)c2c(O)cc(OC)cc2OC)c(OC)c1 [2'-hydroxy-2,4,4',6'-tetramethoxychalcone] | 0.1 (≈ 0.29 µM) | > 500 | > 1000 |
|  | CCC(=O)Oc1cc(OC)cc(OC(C)C)c1C(=O)/C=C/c1ccc(OC)cc1 [2'-isopropoxy-4,4'-dimethoxy-6'-(propionyloxy)chalcone] | 0.01 to 0.03 (≈ 0.0251 to 0.0753 µM) | > 500 | > 1000 |
|  | CCOc1cc(OC)cc(O)c1C(=O)C=Cc1ccc(C)o1 [2'-ethoxy-6'-hydroxy-4'-methoxy-3-(5-methyl-2-furyl)-acrylophenone] | 0.04 (≈ 0.132 µM) | > 500 | > 1000 |
|  | COc1ccc(/C=C/C(=O)c2c(OC)cc(OC)cc2OC(=O)c2cccnc2)cc1 [2',4,4'-trimethoxy-6'-(nicotinoyloxy)chalcone] | 0.01 to 0.025 (≈ 0.0238 to 0.0596 µM) | > 500 | > 4000 |
| 0.3 to 1 (≈ 0.908 to 3.03 µM) | COc1cc(O)c(C(=O)/C=C/c2ccc(O)c(OC)c2)c(OC)c1 [2',4-dihydroxy-3,4',6'-trimethoxychalcone] |  |  |  |
|  | COc1cc(O)c(C(=O)C=Cc2ccco2)c(OC)c1 [3-(2-furyl)-2'-hydroxy-4',6'-dimethoxyacrylophenone] | 0.06 to 0.2 (≈ 0.219 to 0.729 µM) | > 500 | > 1500 |
|  | COc1cc(O)c(C(=O)/C=C/c2ccccc2)c(OC)c1 [2'-hydroxy-4',6'-dimethoxychalcone] | 0.1 to 0.3 (≈ 0.352 to 1.06 µM) | > 1000 | > 5000 |
|  | CCOc1cc(O)c(C(=O)C=Cc2ccc(C)o2)c(OCC)c1 [2',4'-diethoxy-6'-hydroxy-3-(5-methyl-2-furyl)-acrylophenone] | 0.04 to 0.12 (≈ 0.126 to 0.379 µM) | > 500 | > 1000 |
|  | CCC(=O)Oc1cc(OC)cc(OC)c1C(=O)C=Cc1ccc(C)o1 [2',4'-dimethoxy-3-(5-methyl-2-furyl)-6'-(propionyloxy)-acrylophenone] | 0.03 to 0.1 (≈ 0.0871 to 0.29 µM) | > 500 | > 2000 |
| 0.6 to 2 (≈ 1.69 to 5.63 µM) | CCN(CC)c1ccc(/C=C/C(=O)c2c(O)cc(OC)cc2OC)cc1 [4-(diethylamino)-2'-hydroxy-4',6'-dimethoxychalcone] |  |  |  |
